Source: patent US7256187B2, “Rifamycin C-11 oxime derivatives effective against drug-resistant microbes” (Cumbre Pharmaceuticals Inc., priority 2004, dated 2007)
Values after ≈ are worked out from the molar mass of the structure shown. Read-outs that look alike come from different tables or passages of the source.

Assays:
Assay type in all cases: cell-based
[1] = test system: Streptococcus pneumoniae ATCC6303; assay: MIC, microbroth dilution; conditions: Streptococcus pneumoniae ATCC6303, rifS; read-out: Antimicrobial activity (MIC)
[2] = test system: Mycobacterium smegmatis ATCC700084; assay: MIC, microbroth dilution; conditions: Mycolicibacterium smegmatis; Mycobacterium smegmatis ATCC700084, rifS; read-out: Antimicrobial activity (MIC)
[3] = test system: Haemophilus influenzae ATCC10211; assay: MIC, microbroth dilution; conditions: Haemophilus influenzae ATCC10211, rifS; read-out: Antimicrobial activity (MIC)
[4] = test system: Escherichia coli ATCC25922; assay: MIC, microbroth dilution; conditions: Escherichia coli ATCC25922, rifS; read-out: Antimicrobial activity (MIC)
[5] = test system: Staphylococcus epidermidis ATCC12228; assay: MIC, microbroth dilution; conditions: Staphylococcus epidermidis ATCC12228, rifS; read-out: Antimicrobial activity (MIC)
[6] = test system: Enterococcus faecalis ATCC29212; assay: MIC, microbroth dilution; conditions: Enterococcus faecalis ATCC29212, rifS; read-out: Antimicrobial activity (MIC)
[7] = test system: Streptococcus pyogenes ATCC19615; assay: MIC, microbroth dilution; conditions: Streptococcus pyogenes ATCC19615, rifS; read-out: Antimicrobial activity (MIC)
[8] = test system: Staphylococcus aureus ATCC29213; assay: MIC, microbroth dilution
[9] = test system: Staphylococcus aureus ATCC29213 rpoB^D417Y; assay: microbe, parasite or virus in culture
How it was run: (§1)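 MICs by microbroth dilution per NCCLS guidelines, with all incubations at 37° C; S. aureus tested in Cation-Adjusted Mueller-Hinton Broth. Strains carry rifampin-resistance rpoB mutations or quinolone-resistance double mutations in DNA gyrase and topoisomerase IV.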

[10] = test system: Staphylococcus aureus EN1252a gyrA^S84L grlA^S80F; assay: microbe, parasite or virus in culture; conditions: read-out: Antimicrobial activity (MIC)
How it was run: as §1

[11] = test system: Staphylococcus aureus ATCC29213 rpoB^H418Y; assay: microbe, parasite or virus in culture
How it was run: as §1

[12] = test system: Gram-negative bacteria (H. influenzae ATCC 10211 and E. coli ATCC 25922); assay: MIC, microbroth dilution, panel of strains; conditions: Haemophilus influenzae; across H. influenzae ATCC 10211 and E. coli ATCC 25922
Method: (§2) Representative compounds were assayed for antimicrobial activity as follows: Minimum Inhibitory Concentrations (“MICs”) were determined by the microbroth dilution method as per NCCLS guidelines (National Committee for Clinical Laboratory Standards. 2000. Methods for dilution antimicrobial susceptibility tests for bacteria that grow aerobically, 5th ed. M7-A5. National Committee for Clinical Laboratory Standards, Wayne, Pa.), except that all growth incubations were conducted at 37° C. Bacterial cultures were tested in the following bacteriological media: S. aureus, S. epidermidis, and E. coli in Cation-Adjusted Mueller-Hinton Broth, S. pneumoniae in THY Broth supplemented with 1 mg/mL catalase under 5% CO2 atmosphere, S. pyogenes in THY Broth, E. faecalis in BHI Broth, H. influenzae in BHI Broth supplemented with 0.75 μL of 1 mg/mL NAD and 150 μL of 1 mg/ml hematin per 5 mL, and M. smegmatis in Middlebrook Broth plus ADC Enrichment.
(§3) S. aureus […], S. epidermidis ATCC 12228, S. pneumoniae ATCC6303, S. pyogenes ATCC 19615 and E. faecalis ATCC 29212 are rifampin-susceptible Gram-positive strains. […] The compounds of the current invention show further improved activity against these strains with MICs as low as 0.0002 μg/ml. H. influenzae ATCC 10211 and E. coli ATCC 25922 are Gram-negative bacteria. […]

[13] = MIC, microbroth dilution, panel of strains; conditions: across five rifampin-susceptible Gram-positive strains
Method: as §2, §3

[14] = Staphylococcus aureus ATCC29213, rifS, read-out: Antimicrobial activity (MIC)
[15] = Staphylococcus aureus ATCC29213 rpoB^D417Y, rifR, read-out: Antimicrobial activity (MIC)
[16] = Staphylococcus aureus EN1252a gyrA^S84L grlA^S80F, cipR
[17] = Staphylococcus aureus ATCC29213 rpoB^H418Y, rifR, read-out: Antimicrobial activity (MIC)
[18] = Staphylococcus aureus, ATCC29213
[19] = Staphylococcus aureus, ATCC29213, read-out: Antimicrobial activity (MIC)

| SMILES | MIC [1] [µg/mL] | MIC [2] [µg/mL] | MIC [3] [µg/mL] | MIC [4] [µg/mL] | MIC [5] [µg/mL] | MIC [6] [µg/mL] | MIC [7] [µg/mL] | MIC [8, 14] [µg/mL] | MIC [9, 15] [µg/mL] | MIC [10, 16] [µg/mL] | MIC [11, 17] [µg/mL] | MIC [12] [µg/mL] | MIC [13] [µg/mL] | MIC ([8]; Staphylococcus aureus, ATCC29213, S. aureus ATCC 29213 wild type, read-out: MIC) [µg/mL] | MIC [9, 18] [µg/mL] | MIC [9, 19] [µg/mL] | MIC ([10]; Staphylococcus aureus) [µg/mL] | MIC [11, 18] [µg/mL] | MIC [11, 19] [µg/mL] |
| --- | --- | --- | --- | --- | --- | --- | --- | --- | --- | --- | --- | --- | --- | --- | --- | --- | --- | --- | --- |
| C=CCO/N=C1/c2c3c(C)c(O)c4c2C(=O)C(N2CCOCC2)=C(NC(=O)/C(C)=C\C=C\[C@H](C)[C@H](O)[C@@H](C)[C@@H](O)[C@@H](C)[C@H](OC(C)=O)[C@H](C)[C@@H](OC)/C=C/O[C@@]1(C)O3)C4=O [Example 36, 11-Deoxy-3-(morpholin-4-yl)-11-allyloxyiminorifamycin S] | 0.0002 to 0.125 (≈ 0.000239 to 0.15 µM) | 0.5 to 64 (≈ 0.598 to 76.6 µM) | 0.03 to 2 (≈ 0.0359 to 2.39 µM) | 0.125 to 8 (≈ 0.15 to 9.57 µM) | 0.0005 to 0.063 (≈ 0.000598 to 0.0754 µM) | 2 to 32 (≈ 2.39 to 38.3 µM) | 0.0005 to 0.063 (≈ 0.000598 to 0.0754 µM) | 0.004 to 0.5 (≈ 0.00478 to 0.598 µM) | 0.25 to 32 (≈ 0.299 to 38.3 µM) | 0.004 to 0.5 (≈ 0.00478 to 0.598 µM) | 0.125 to 16 (≈ 0.15 to 19.1 µM) |  |  |  |  |  |  |  |  |
| CO[C@H]1/C=C/O[C@@]2(C)Oc3c(C)c(O)c4c(O)c(c(/C=N/N5CCN(C)CC5)c(O)c4c3/C2=N/O)NC(=O)/C(C)=C\C=C\[C@H](C)[C@H](O)[C@@H](C)[C@@H](O)[C@@H](C)[C@H](OC(C)=O)[C@@H]1C [Example 37, 11-Deoxy-11-hydroxyimino-3-(4-methylpiperazin-1-yl)aminomethenylrifamycin SV] | 0.0002 to 0.125 (≈ 0.000239 to 0.149 µM) | 0.5 to 64 (≈ 0.597 to 76.4 µM) | 0.03 to 2 (≈ 0.0358 to 2.39 µM) | 0.125 to 8 (≈ 0.149 to 9.55 µM) | 0.0005 to 0.063 (≈ 0.000597 to 0.0752 µM) | 2 to 32 (≈ 2.39 to 38.2 µM) | 0.0005 to 0.063 (≈ 0.000597 to 0.0752 µM) | 0.004 to 0.5 (≈ 0.00477 to 0.597 µM) | 0.25 to 32 (≈ 0.298 to 38.2 µM) | 0.004 to 0.5 (≈ 0.00477 to 0.597 µM) | 0.125 to 16 (≈ 0.149 to 19.1 µM) |  |  |  |  |  |  |  |  |
| CO[C@H]1/C=C/O[C@@]2(C)Oc3c(C)c(O)c4c(c3/C2=N/O)C(=O)C(/C=N/N2CCN(C)CC2)=C(NC(=O)/C(C)=C\C=C\[C@H](C)[C@H](O)[C@@H](C)[C@@H](O)[C@@H](C)[C@H](OC(C)=O)[C@@H]1C)C4=O [Example 38, 11-Deoxy-11-hydroxyimino-3-(4-methylpiperazin-1-yl)aminomethenylrifamycin S] | 0.0002 to 0.125 (≈ 0.000239 to 0.15 µM) | 0.5 to 64 (≈ 0.598 to 76.6 µM) | 0.03 to 2 (≈ 0.0359 to 2.39 µM) | 0.125 to 8 (≈ 0.15 to 9.57 µM) | 0.0005 to 0.063 (≈ 0.000598 to 0.0754 µM) | 2 to 32 (≈ 2.39 to 38.3 µM) | 0.0005 to 0.063 (≈ 0.000598 to 0.0754 µM) | 0.004 to 0.5 (≈ 0.00478 to 0.598 µM) | 0.25 to 32 (≈ 0.299 to 38.3 µM) | 0.004 to 0.5 (≈ 0.00478 to 0.598 µM) | 0.125 to 16 (≈ 0.15 to 19.1 µM) |  |  |  |  |  |  |  |  |
| CO[C@H]1/C=C/O[C@@]2(C)Oc3c(C)c(O)c4c(O)c(c(/C=N/N5CCN(c6cc7c(cc6F)c(=O)c(C(=O)O)cn7C6CC6)CC5)c(O)c4c3/C2=N/O)NC(=O)/C(C)=C\C=C\[C@H](C)[C@H](O)[C@@H](C)[C@@H](O)[C@@H](C)[C@H](OC(C)=O)[C@@H]1C [Example 39, 3-[4-(3-Carboxy-1-cyclopropyl-6-fluoro-4-oxo-1,4-dihydroquinolin-7-yl)piperazin-1-yl-aminomethylenyl]-11-deoxy-11-hydroxyiminorifamycin SV] | 0.0002 to 0.125 (≈ 0.000187 to 0.117 µM) | 0.5 to 64 (≈ 0.468 to 59.9 µM) | 0.03 to 2 (≈ 0.0281 to 1.87 µM) | 0.125 to 8 (≈ 0.117 to 7.48 µM) | 0.0005 to 0.063 (≈ 0.000468 to 0.0589 µM) | 2 to 32 (≈ 1.87 to 29.9 µM) | 0.0005 to 0.063 (≈ 0.000468 to 0.0589 µM) | 0.004 to 0.5 (≈ 0.00374 to 0.468 µM) | 0.25 to 32 (≈ 0.234 to 29.9 µM) | 0.004 to 0.5 (≈ 0.00374 to 0.468 µM) | 0.125 to 16 (≈ 0.117 to 15 µM) |  |  |  |  |  |  |  |  |
| CO[C@H]1/C=C/O[C@@]2(C)Oc3c(C)c(O)c4c(O)c(c(/C=N/N5CCN(C)CC5)c(O)c4c3C2=O)NC(=O)/C(C)=C\C=C\[C@H](C)[C@H](O)[C@@H](C)[C@@H](O)[C@@H](C)[C@H](OC(C)=O)[C@@H]1C [rifampin, reference compound] | 0.061 (≈ 0.0741 µM) | 64 (≈ 77.8 µM) | 0.24 (≈ 0.292 µM) | 16 (≈ 19.4 µM) | 0.03 (≈ 0.0365 µM) | 1 (≈ 1.22 µM) | 0.013 (≈ 0.0158 µM) | 0.008 (≈ 0.00972 µM) |  |  |  | 0.24 to 16 (≈ 0.292 to 19.4 µM) | 0.013 to 1 (≈ 0.0158 to 1.22 µM) | 0.008 (≈ 0.00972 µM) | > 64 | > 64 | 0.004 (≈ 0.00486 µM) | 8 (≈ 9.72 µM) | 8 (≈ 9.72 µM) |
